Measurements: US11338007B2, “Combination formulation of three antiviral compounds” (priority 2016, dated 2022)
Values belong to the compound of their own block, whether it stands above or below them.

Experiments:
[1] = Tablet dissolution, 50 mM sodium acetate buffer pH 5.0 with 2.0% w/v Polysorbate 80, USP Type II, 75 rpm; assay type: physicochemical; settings: for dissolution at 30 minutes: after 4 weeks open at 40° C./75% RH
Description: FIGS. 10-12 depict additional dissolution profiles for the sofosbuvir/velpatasvir SSD/voxilaprevir SSD tablets having the formulation described in Table 13 and which were used in phase 1, 2, and 3 clinical studies, where the dissolution testing was conducted at pH 5.0 acetate buffer containing 2.0% w/v polysorbate 80. Four batches of the sofosbuvir/velpatasvir SSD/voxilaprevir SSD tablets were tested, with Batch A manufactured at 100 kg and Batches B, C and D manufactured at 145 kg. All other aspects of the formulation and manufacturing process were otherwise equivalent. […] Moreover, for Batch A, the amount dissolved at 30 min remained between 98 and 100% for sofosbuvir, between 90 and 92% for velpatasvir SSD, and between 89 and 93% for voxilaprevir SSD. […] For Batch D, the amount dissolved at 30 min remained at 100% for sofosbuvir, between 90 and 91% for velpatasvir SSD, and between 89 and 91% for voxilaprevir SSD. Release of velpatasvir SSD and voxilaprevir SSD from the sofosbuvir/velpatasvir SSD/voxilaprevir SSD tablets associated with all four Batches was complete after 60 minutes.

[2] = Stress studies: stability of tablets made with stressed VEL SSD/VOX SSD (water, residual solvent, peroxide, reprocessing, potency; Tables 16-21); assay type: physicochemical
Description: The impact of the following stressors on the physical and chemical stability of the sofosbuvir/velpatasvir SSD/voxilaprevir SSD tablets were evaluated:
(i) Voxilaprevir SSD and velpatasvir SSD, and sofosbuvir/velpatasvir SSD/voxilaprevir SSD tablet water content;
(ii) Copovidone peroxide content in velpatasvir SSD and in voxilaprevir SSD (iii) Reprocessed velpatasvir SSD and voxilaprevir SSD;
(iv) Voxilaprevir SSD and velpatasvir SSD potency (varying the ratio of velpatasvir or voxilaprevir to copovidone); and
(v) Seeding sofosbuvir/velpatasvir SSD/voxilaprevir SSD tablets with crystalline voxilaprevir Form VIII and Form X drug substances.

[3] = Tablet dissolution as a function of medium pH and composition (FIGS. 13-15); assay type: physicochemical; settings: for dissolution from tablets: pH 2.0, 4.5 and 6.8 buffers, FaSSIF and FeSSIF; for dissolution from tablets at 60 minutes: pH 4.0 and 5.0 containing 2.0% w/v polysorbate 80
[4] = Velpatasvir pharmacokinetics after single and multiple oral doses (Table 1); assay type: in vivo, human; settings: for t1/2 / tlast / tmax: median
Description: Following single and multiple oral doses of velpatasvir, maximum plasma concentrations occurred between 1.50 and 3.25 hours (median tmax).

[5] = Chemical and physical stability of Formulation G film-coated tablets Lots A and B (Tables 11A, 11B); assay type: physicochemical; settings: packaged Formulation G tablets; 40° C./75% RH and 25° C./60% RH for 6 months
Description: In some embodiments, the film-coated tablets were packaged in 75 and 100 mL white HDPE bottles (Lots A and B, respectively, as described in Tables 11A, 11B) with 1 g silica gel desiccant canisters and a polyester fiber coil. The 75 and 100 mL HDPE bottles contained fourteen and twenty eight tablets, respectively. Each HDPE bottle was capped using a continuous thread, child-resistant polypropylene screw cap with an […], aluminum-faced line. The packaged tablets (14 and 28 counts) were evaluated for stability at 40° C./75% RH and 25° C./60% RH. Additionally, the 14-count bottles (without cap) were evaluated for stability under open conditions at 40° C./75% RH.

[6] = BCS classification and pH dependence of solubility; assay type: physicochemical
[7] = Photostability of tablet cores and film-coated tablets per ICH Q1B (Table 12); assay type: physicochemical; settings: for level of degradation products: tablets film-coated to weight gains 2.1 to 5.4%; for loss after exposure to light: uncoated tablet cores
Description: Tablet cores and film-coated tablets were evaluated per ICH Q1B guidelines with a total of illumination of more than 1.2 million-lux hours and a total irradiance of more than 200 W·hr/m^2.

[8] = Impact of desiccant and packaging configuration on tablet stability (Tables 24A-24C); assay type: physicochemical; settings: desiccant study (0, 1, 3 g); all conditions, 6 months;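 also: stability of tablets stored with different desiccant amounts and packaging configurations, evaluating physical and chemical stability plus dissolution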
[9] = Solid-state properties and open-container stability of sofosbuvir Forms 6 and 7; assay type: physicochemical
Excerpt: In some embodiments, and the Examples presented herein, the tablet formulation includes sofosbuvir having Form 6 and, optionally, a trace amount of Form 7. […] Form 6 of sofosbuvir is the thermodynamically stable form and remains physically stable when suspended in water. Form 7 of Sofosbuvir, while physically stable in water for short periods of time, can be converted to Form 6 with prolonged stirring.

[10] = Food effect (high calorie/high-fat meals) on pharmacokinetics in human subjects (Table 28); assay type: in vivo; settings: tablets 400/100/100 mg; high calorie/high-fat meal
Description: The effect of food (high calorie/high-fat meals) on the pharmacokinetics of sofosbuvir/velpatasvir SSD/voxilaprevir SSD tablets (400/100/100 mg). […] As a result, sofosbuvir/velpatasvir SSD/voxilaprevir SSD tablets are administered with food.

[11] = Relative bioavailability of voxilaprevir amorphous free acid tablets vs Form VI tablets, fasted and fed, healthy subjects (Table 3); assay type: in vivo, human; settings: human, in vivo, oral, single dose 100 mg, healthy subjects, fasted
Excerpt: Accordingly, a spray dried dispersion of voxilaprevir in the amorphous free acid form was selected for incorporation into the tablet formulation.

[12] = Voxilaprevir Form VI pharmacokinetics after single and multiple doses in healthy subjects (Table 2); assay type: in vivo, human; settings: for Ctau: mean
Description: Pub. No. 2015/0175625 A1. Initial studies were conducted using the crystalline Form VI of voxilaprevir. As described previously, Form VI of voxilaprevir is characterized by an X-ray powder diffractogram comprising the following peaks (±0.2°): at 14.6, 15.4, and 20.0 °2θ, as determined on a diffractometer using Cu—Kα radiation. Following single and multiple oral doses of voxilaprevir, Form VI, maximum plasma concentrations occurred between 2.0 and 5.0 hours (median tmax). […] Steady-state concentrations of voxilaprevir, Form VI were achieved after 7 days of once-daily dosing across all dose levels (Table 2).

[13] = SSD potency study, tablet Lots A-D, all conditions
[14] = tablets from VEL SSD 6.0% residual ethanol and VOX SSD 2.1% residual acetone, all conditions
[15] = tablets from VEL SSD 7.0% and VOX SSD 3.2% water content, all conditions

- effect of food on plasma exposure [10]: does not substantially alter
Compound: C[C@@]1(F)[C@H](O)[C@@H](CO)O[C@H]1n1ccc(=O)[nH]c1=O [Formulation M1]

- effect of food on plasma exposure [10]: does not substantially alter
Compound: C[C@H](NP(=O)(O)OC[C@H]1OC(n2ccc(=O)[nH]c2=O)[C@](C)(F)[C@@H]1O)C(=O)O (stereo partly drawn) [Formulation M2]

The next lines start with the compound.

Compound: COC[C@H]1C[C@@H](c2ncc(-c3ccc4c(c3)COc3cc5c(ccc6nc([C@@H]7CC[C@H](C)N7C(=O)[C@@H](NC(=O)OC)C(C)C)[nH]c65)cc3-4)[nH]2)N(C(=O)[C@H](NC(=O)OC)c2ccccc2)C1 [velpatasvir, methyl {(2S)-1-[(2S,5S)-2-(9-{2-[(2S,4S)-1-{(2R)-2-[(methoxycarbonyl)amino]-2-phenylacetyl}-4-(methoxymethyl)pyrrolidin-2-yl]-1H-imidazol-5-yl}-1,11-dihydroisochromeno[4′,3′:6,7]naphtho[1,2-d]imidazol-2-yl)-5-methylpyrrolidin-1-yl]-3-methyl-1-oxobutan-2-yl}carbamate]
- dissolution at 30 minutes ([1]; potency study Lot A): 86%
- dissolution at 30 minutes ([1]; potency study Lot B): 91%
- dissolution at 30 minutes ([1]; potency study Lots C and D): 89-93%
- release of velpatasvir at 30 minutes ([1]; tablets containing neat amorphous velpatasvir free base): 62%
- release of velpatasvir at 30 minutes ([1]; tablets containing velpatasvir SSD): 91%
- total impurities/degradation products [2, 13]: 0.0%
- total impurities/degradation products ([2]; tablets from SSDs with copovidone 544 ppm (VEL SSD) and 655 ppm (VOX SSD) peroxides): 0.0%
- total impurities/degradation products [2, 14]: 0.0%
- total impurities/degradation products [2, 15]: 0.0%
- dissolution from tablets [3]: Incomplete dissolution
- dissolution from tablets at 60 minutes [3]: complete dissolution
- CLss/F ([4]; multiple dose 5 mg, mean): 36,095.7 mL/h
- Cmax ([4]; multiple dose 5 mg, mean): 28.3 ng/mL
- t1/2 ([4]; multiple dose 5 mg): 13.73 h
- tlast ([4]; multiple dose 5 mg): 24.00 h
- tmax ([4]; multiple dose 5 mg): 2.00 h
- CLss/F ([4]; multiple dose 50 mg, mean): 19,593.0 mL/h
- Cmax ([4]; multiple dose 50 mg, mean): 411.4 ng/mL
- Ctau ([4]; multiple dose 50 mg, mean): 37.9 ng/mL
- t1/2 ([4]; multiple dose 50 mg): 13.02 h
- tlast ([4]; multiple dose 50 mg): 24.00 h
- CLss/F ([4]; multiple dose 150 mg, mean): 45,082.3 mL/h
- Cmax ([4]; multiple dose 150 mg, mean): 669.4 ng/mL
- Ctau ([4]; multiple dose 150 mg, mean): 63.4 ng/mL
- t1/2 ([4]; multiple dose 150 mg): 15.15 h
- tlast ([4]; multiple dose 150 mg): 24.00 h
- CLss/F ([4]; multiple dose 450 mg, mean): 58,804.6 mL/h
- Cmax ([4]; multiple dose 450 mg, mean): 1195.7 ng/mL
- Ctau ([4]; multiple dose 450 mg, mean): 127.7 ng/mL
- t1/2 ([4]; multiple dose 450 mg): 11.74 h
- tlast ([4]; multiple dose 450 mg): 24.00 h
- tmax ([4]; multiple dose 450 mg): 3.00 h
- mean plasma concentration at 24 hours postdose relative to protein-adjusted EC50 for genotype 1 to 6 HCV replicons ([4]; multiple once-daily doses greater than 5 mg): above
- CL/F ([4]; single dose 5 mg, mean): 58,398.0 mL/h
- tlast ([4]; single dose 5 mg): 24.00 h
- CL/F ([4]; single dose 50 mg, mean): 19,188.4 mL/h
- Clast ([4]; single dose 50 mg, mean): 2.34 ng/mL
- tlast ([4]; single dose 50 mg): 72.00 h
- CL/F ([4]; single dose 100 mg, mean): 24,617.9 mL/h
- Clast ([4]; single dose 100 mg, mean): 2.85 ng/mL
- tlast ([4]; single dose 100 mg): 95.00 h
- CL/F ([4]; single dose 150 mg, excluding one patient, mean (% CV)): ^bMean (% CV) CL/F for the VEL 150 mg group (excluding one patient) was 31,403.8 (40.5) mL/h.
- CL/F ([4]; single dose 150 mg, mean): 72,185.5 mL/h
- Clast ([4]; single dose 150 mg, mean): 2.23 ng/mL
- tlast ([4]; single dose 150 mg): 96.00 h
- CL/F ([4]; single dose 450 mg, mean): 53,676.4 mL/h
- Clast ([4]; single dose 450 mg, mean): 3.28 ng/mL
- tlast ([4]; single dose 450 mg): 96.00 h
- total impurities/degradation products [5]: 0.0%
- BCS Class [6]: BCS Class 4
- aqueous solubility, pH dependence [6]: pH-dependent
- level of degradation products [7]: 0.4%
- loss after exposure to light [7]: up to 0.3%

Compound: CC[C@@H]1[C@@H]2CN(C(=O)[C@H](C(C)(C)C)NC(=O)O[C@@H]3C[C@H]3CCCCC(F)(F)c3nc4ccc(OC)cc4nc3O2)[C@@H]1C(=O)N[C@]1(C(=O)NS(=O)(=O)C2(C)CC2)C[C@H]1C(F)F [voxilaprevir, (1aR,5S,8S,9S,10R,22aR)-5-tert-butyl-N-{(1R,2R)-2-(difluoromethyl)-1-[(1-methylcyclopropanesulfonyl)carbamoyl]cyclopropyl}-9-ethyl-18,18-difluoro-14-methoxy-3,6-dioxo-1,1a,3,4,5,6,9,10,18,19,20,21,22,22a-tetradecahydro-8H-7,10-methanocyclopropa[18,19][1,10,3,6]dioxadiazacyclononadecino[11,12-b]quinoxaline-8-carboxamide]
- dissolution at 30 minutes ([1]; potency study Lot A): 85%
- dissolution at 30 minutes ([1]; potency study Lot B): 91%
- dissolution at 30 minutes ([1]; potency study Lots C and D): 92%
- voxilaprevir released at 30 minutes ([1]; tablets containing 0% w/w crystalline voxilaprevir): 91%
- voxilaprevir released at 30 minutes ([1]; tablets containing neat amorphous voxilaprevir free acid): 76%
- voxilaprevir released at 30 minutes ([1]; tablets containing voxilaprevir SSD): 91%
- voxilaprevir released at 30 minutes ([1]; tablets spiked with 5% w/w Form VIII or Form X): 84%
- voxilaprevir released at 30 minutes ([1]; tablets spiked with 10% w/w Form VIII or Form X): 80%
- voxilaprevir released at 30 minutes ([1]; tablets spiked with 20% w/w Form VIII or Form X): 73%
- total impurities/degradation products [2, 13]: 0.7%
- total impurities/degradation products [2, 14]: 0.0%
- total impurities/degradation products [2, 15]: 0.0%
- total impurities/degradation products [8]: 0.0%
- dissolution from tablets [3]: Incomplete dissolution
- dissolution from tablets at 60 minutes [3]: complete dissolution
- BCS Class [6]: BCS Class 2
- aqueous solubility, pH dependence [6]: pH-dependent
- level of degradation products [7]: 0.0%
- loss after exposure to light [7]: no change

Compound: CC(C)OC(=O)[C@H](C)N[P@](=O)(OC[C@H]1O[C@@H](n2ccc(=O)[nH]c2=O)[C@](C)(F)[C@@H]1O)Oc1ccccc1 [Form 6, sofosbuvir]
- hygroscopicity [9]: non-hygroscopic
- photosensitivity [9]: not photosensitive
- physical and chemical stability ([9]; open container, 1 month at 40° C./75% RH): physically and chemically stable

Compound: CC[C@@H]1[C@@H]2CN(C(=O)[C@H](C(C)(C)C)NC(=O)O[C@@H]3C[C@H]3CCCCC(F)(F)c3nc4ccc(OC)cc4nc3O2)[C@@H]1C(=O)N[C@]1(C(=O)NS(=O)(=O)C2(C)CC2)C[C@H]1C(F)F [voxilaprevir, Form VI, voxilaprevir]
- AUC(0-inf) [11]: 326 ng·h/mL
- Cmax ([11]; read-out: Cmax): 21.7 ng/mL
- Ctau ([12]; multiple dose 30 mg): 1.9 ng/mL
- Ctau ([12]; multiple dose 100 mg): 5.7 ng/mL
- Ctau ([12]; multiple dose 300 mg): 10.0 ng/mL
- steady-state concentrations achieved after ([12]; once-daily dosing, all dose levels): 7 days
- t1/2 ([12]; single dose 300 mg, median): 35.49 h
